# “Also recorded” adds a separate entry of the source.
# Tests used:
# Sprague-Dawley rats [1] = assay: animal or person; conditions: for ED50: Rattus norvegicus; for Approximate therapeutic index / Minimal lethal dose: rats
# Description: (§1) Adult male Sprague-Dawley rats (250-300 g) were selected for the experiment. […] The anesthesia effects of the compounds were assessed in rats using a LORR assay and a period >30 s was considered as an indicator of general anesthesia.
# H295R cell line [2] = assay: Adrenocortical function in vitro test: secretion of cortisol and corticosterone, Group A compounds; type: cell-based; conditions: H295 cells; for EC50: Homo sapiens, 0.1-10000 nM, HPLC-MS/MS
# Sprague-Dawley rats [3] = assay: Pharmacological characteristics at equivalent doses (2ED50), Group A compounds; type: in vivo; conditions: 2ED50, tail vein; for Types and incidence of adverse reactions: (animals affected/animals)
# H295R cell line [4] = assay: Adrenocortical function in vitro test: secretion of cortisol and corticosterone, Group B compounds; type: cell-based; conditions: H295R cells; for EC50: 0.1-10000 nM, HPLC-MS/MS
# Sprague-Dawley rats [5] = assay: animal or person; conditions: for ED50: LORR in rats, tail vein, brackets = 95% confidence limit; for Approximate therapeutic index / Minimal lethal dose: rats
# Description: as §1
# [6] = read-out: EC50 (Corticosterone)
# [7] = Homo sapiens, NCI-H295R, read-out: EC50 (Corticosterone)
# [8] = Homo sapiens, NCI-H295R, read-out: EC50 (Cortisol)
SMILES,ED50 (Sprague-Dawley rats [1]) [mg/kg],Approximate therapeutic index (Sprague-Dawley rats [1]),Minimal lethal dose (Sprague-Dawley rats [1]) [mg/kg],Corticosterone as an indicator to determine the presence of inhibition (H295R cell line [2]),Cortisol as an indicator to determine the presence of inhibition (H295R cell line [2]),EC50 (H295R cell line [2]; [6]) [nM],EC50 (H295R cell line [2]; read-out: EC50 (Cortisol)) [nM],Onset time (Sprague-Dawley rats [3]) [min],Righting reflex duration (Sprague-Dawley rats [3]) [min],Types and incidence of adverse reactions (Sprague-Dawley rats [3]),Corticosterone as an indicator to determine the presence of inhibition (H295R cell line [4]),Cortisol as an indicator to determine the presence of inhibition (H295R cell line [4]),EC50 (H295R cell line [4]; [7]) [nM],EC50 (H295R cell line [4]; [8]) [nM],ED50 (Sprague-Dawley rats [5]; Rattus norvegicus) [mg/kg],Approximate therapeutic index (Sprague-Dawley rats [5]),Minimal lethal dose (Sprague-Dawley rats [5]) [mg/kg],EC50 (H295R cell line [4]; [6]) [nM],EC50 (H295R cell line [4]; read-out: EC50 (Cortisol)) [nM],ED50 (Sprague-Dawley rats [5])
CC#CC(C)(C)OC(=O)c1c(F)cnn1[C@H](C)c1ccccc1 [Compound A83],1 to 2,>10,>12,0,0,> 1000,> 1000,0.43 ± 0.32,3.21 ± 0.41,,,,,,,,,,,
CC#CC1(OC(=O)c2ccnn2[C@H](C)c2ccccc2)COC1 [Compound A10],2 to 6,>5,>12,0,0,> 1000,> 1000,0.43 ± 0.22,1.32 ± 0.61,"Red urine(8/8),; also recorded: Tremor(3/8), Forelimb; also recorded: clonic; also recorded: convulsion(2/8), Hindlimb; also recorded: rigidity(2/8), Facial; also recorded: muscle twitching(2/8),; also recorded: Nod(1/8)",,,,,,,,,,
CC(=O)C1=C(OC(=O)c2c(F)c(F)nn2[C@H](C)c2ccccc2)CCC1 [Compound A98],1 to 2,>7,>10,0,0,> 1000,> 1000,0.30 ± 0.06,1.89 ± 0.23,"Red urine(8/8), Facial; also recorded: muscle; also recorded: twitching(2/8), Hindlimb; also recorded: rigidity (1/8)",,,,,,,,,,
C=CC1(OC(=O)c2c(F)cnn2[C@H](C)c2ccccc2)COC1 [Compound A87],0.5 to 1,>18,>13,0,0,> 1000,> 1000,0.30 ± 0.12,2.21 ± 0.24,,,,,,,,,,,
CC(=O)C1=C(OC(=O)c2ccnn2[C@H](C)c2ccccc2)CCC1 [Compound A18],2 to 6,>3,>8,0,0,> 100,> 100,0.73 ± 0.10,1.19 ± 0.64,"Red urine(8/8), Hindlimb; also recorded: rigidity(5/8)",,,,,,,,,,
CC#CC(C)(C)OC(=O)c1ccnn1[C@H](C)c1ccccc1 [Compound A12],1 to 2,>4,>6,0,0,> 100,> 100,0.69 ± 0.22,3.16 ± 2.13,"Red urine(8/8),; also recorded: Tremor(3/8),; also recorded: Euphoria(1/8), Hindlimb; also recorded: rigidity (1/8), Clonic; also recorded: convulsion(1/8), Tetany; also recorded: Apnea(1/8), Nod(1/8)",,,,,,,,,,
C=CC1(OC(=O)c2cc(F)nn2[C@H](C)c2ccccc2)COC1 [Compound A65],2 to 6,>7,>16,0,0,> 100,> 100,0.36 ± 0.15,2.48 ± 0.67,"Red and urine(8/8), Tremor(2/8)",,,,,,,,,,
C=C=CC1(OC(=O)c2c(F)c(F)nn2[C@H](C)c2ccccc2)COC1 [Compound A92],0.04 to 0.5,>14,>1,0,0,> 1000,> 1000,0.43 ± 0.22,2.03 ± 0.33,"Red and urine(8/8), Tremor(2/8), and Euphoria(1/8)",,,,,,,,,,
C=C=CC1(OC(=O)c2c(Cl)cnn2[C@H](C)c2ccccc2)COC1 [Compound A108],2 to 6,>5,>15,0,0,> 100,> 100,0.26 ± 0.20,3.29 ± 1.20,"Red urine(8/8), Hindlimb; also recorded: rigidity (7/8), the four; also recorded: limbs Tremor(3/8)",,,,,,,,,,
C=CC#CC(C)OC(=O)c1ccnn1[C@H](C)c1ccccc1 (some centres unmarked) [Compound A15],2 to 6,>4,>9,0,0,> 100,> 100,0.40 ± 0.10,1.82 ± 0.76,"Red urine(8/8),; also recorded: Euphoria(2/8), Hindlimb; also recorded: rigidity(2/8), Hindlimb; also recorded: Tremor(1/8)",,,,,,,,,,
CC#CCOC(=O)c1ccnn1[C@H](C)c1ccccc1 [Compound A23],2 to 6,>5,>11,0,0,> 100,> 100,0.48 ± 0.14,2.28 ± 1.83,"Red and urine(8/8), Euphoria(6/8), and Hindlimb rigidity and (2/8), Tremor(1/8), and Convulsions(1/8)",,,,,,,,,,
CO[C@H]1C[C@@H](OC(=O)c2ccnn2[C@H](C)c2ccccc2)C1 [Compound A25],0.04 to 0.5,>21,>5,0,0,> 1000,> 1000,0.50 ± 0.12,2.6 ± 0.83,"Red urine(8/8), Hindlimb; also recorded: rigidity (2/8), Tremor(1/8)",,,,,,,,,,
C=CC1(OC(=O)c2ccnn2[C@H](C)c2ccccc2)COC1 [Compound A34],0.5 to 1,>6,>4,0,0,> 1000,> 1000,0.60 ± 0.32,1.6 ± 0.43,"Red urine(8/8), Hindlimb; also recorded: rigidity(2/8), Tremor(1/8)",,,,,,,,,,
CCOC(=O)c1c(Cl)nnn1[C@H](C)c1ccccc1 [Compound B65],,,,,,,,,,,0,0,> 1000,> 1000,0.5 to 1,>13,>9,,,
CC(=O)C1=C(OC(=O)c2cnnn2[C@H](C)c2ccccc2)CCCC1 [Compound B15],,,,,,,,,,,0,0,> 1000,> 1000,0.5 to 1,>9,>9,,,
C=CC(CC)OC(=O)c1cnnn1[C@H](C)c1ccccc1 (some centres unmarked) [Compound B13],,,,,,,,,,,0,0,> 1000,> 1000,0.5 to 1,>2,>1,,,
CCOC(=O)c1c(Br)nnn1[C@H](C)c1ccccc1 [Compound B99],,,,,,,,,,,0,0,,,,>16,>8,> 3000,> 3000,A (A indicates that the measured ED50 is in the range of 0.04-0.50 mg/kg (including 0.04 and 0.50 mg/kg))
CC(C)O[C@H]1C[C@@H](OC(=O)c2cnnn2[C@H](C)c2ccccc2)C1 [Compound B26],,,,,,,,,,,0,0,> 100,> 100,1 to 2,>10,>12,,,
C[C@H](c1ccccc1)n1nncc1C(=O)OC1CC1 [Compound B18],,,,,,,,,,,0,0,> 100,> 100,1 to 2,>12,>14,,,

# Source: patent US12570612B2, “Substituted nitrogen heterocyclic compound and anesthetic effect thereof” (priority 2019, dated 2026)
